7 molecules from PubChem BioAssay AID328 (DTP/NCI, 2004) can be followed below.

This experiment concerns BDF1 mice, P388 leukemia ip, median survival T/C. Nature of the experiment: NCI In Vivo Anticancer Drug Screen. Data for tumor model P388 Leukemia (intraperitoneal) in B6D2F1 (BDF1) mice. To be noted: endpoint: median survival time, higher = longer survival. An outline of the steps: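 Each value expresses how treatment altered survival: treated-mouse outcome over vehicle-mouse outcome, both groups bearing the transplanted tumour.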

[1] abbreviates: dose: 25.0 mg/kg/injection, schedule: Q01DX009 (ip), vehicle: Klucel (hydroxypropylcellulose) (HPC).
[2] abbreviates: dose: 50.0 mg/kg/injection, schedule: Q01DX009 (ip), vehicle: Klucel (hydroxypropylcellulose) (HPC).
The mark [3] stands for this setting: dose: 100.0 mg/kg/injection, schedule: Q01DX009 (ip), vehicle: Klucel (hydroxypropylcellulose) (HPC).
The mark [4] stands for this setting: dose: 200.0 mg/kg/injection, schedule: Q01DX009 (ip), vehicle: Klucel (hydroxypropylcellulose) (HPC).
Where [5] appears, read: dose: 400.0 mg/kg/injection, schedule: Q01DX009 (ip), vehicle: Klucel (hydroxypropylcellulose) (HPC).

Values joined by “and” are separate entries in the source; they are usually repeats but may differ in a detail not shown here. Equal values may be shown once. Inconclusive results and toxic doses are left out.

As to `COC1C(O)C(C)OC(OC2C(Oc3cccc4c(O)c5c(=O)oc6ccc(C)c7c(=O)oc(c34)c5c67)OC(C)C(O)C2O)C1O` (stereo unspecified), the T/C runs as follows: (dose: 0.39 mg/kg/injection, schedule: Q01DX009 (ip), vehicle: other) 98 % of control and 121 % of control; (dose: 0.39 mg/kg/injection, schedule: Q01DX009 (oral), vehicle: Klucel (hydroxypropylcellulose) (HPC)) 110 % of control; (dose: 0.78 mg/kg/injection, schedule: Q01DX009 (ip), vehicle: other) 104 % of control; (dose: 0.78 mg/kg/injection, schedule: Q01DX009 (oral), vehicle: Klucel (hydroxypropylcellulose) (HPC)) 100 % of control; (dose: 1.56 mg/kg/injection, schedule: Q01DX009 (ip), vehicle: other) 106 % of control; (dose: 1.56 mg/kg/injection, schedule: Q01DX009 (oral), vehicle: Klucel (hydroxypropylcellulose) (HPC)) 98 % of control and 104 % of control. Further, the T/C reads like this: (dose: 3.12 mg/kg/injection, schedule: Q01DX009 (ip), vehicle: Klucel (hydroxypropylcellulose) (HPC)) 159 % of control; (dose: 3.12 mg/kg/injection, schedule: Q01DX009 (ip), vehicle: other) 159 % of control; (dose: 3.12 mg/kg/injection, schedule: Q01DX009 (oral), vehicle: Klucel (hydroxypropylcellulose) (HPC)) 109 % of control and 110 % of control; (dose: 3.13 mg/kg/injection, schedule: Q01DX009 (ip), vehicle: saline with Tween-80) 162 % of control; (dose: 6.25 mg/kg/injection, schedule: Q01DX009 (ip), vehicle: Klucel (hydroxypropylcellulose) (HPC)) 173 % of control; (dose: 6.25 mg/kg/injection, schedule: Q01DX009 (ip), vehicle: other) 200 % of control. Further, the T/C is 217 % of control (dose: 6.25 mg/kg/injection, schedule: Q01DX009 (ip), vehicle: saline with Tween-80); 101 % of control and 106 % of control (dose: 6.25 mg/kg/injection, schedule: Q01DX009 (oral), vehicle: Klucel (hydroxypropylcellulose) (HPC)); 150 % of control (dose: 8.0 mg/kg/injection, schedule: Q04DX003 (ip), vehicle: saline with Tween-80); 209 % of control (dose: 12.5 mg/kg/injection, schedule: Q01DX009 (ip), vehicle: Klucel (hydroxypropylcellulose) (HPC)); 156 % of control and 165 % of control and 205 % of control (dose: 12.5 mg/kg/injection, schedule: Q01DX009 (ip), vehicle: other); 190 % of control and 199 % of control (dose: 12.5 mg/kg/injection, schedule: Q01DX009 (ip), vehicle: saline with Tween-80). In addition, the T/C was 103 % of control and 105 % of control (dose: 12.5 mg/kg/injection, schedule: Q01DX009 (oral), vehicle: Klucel (hydroxypropylcellulose) (HPC)); 173 % of control (dose: 16.0 mg/kg/injection, schedule: Q04DX003 (ip), vehicle: saline with Tween-80); 221 % of control under setting [1]; 167 % of control and 215 % of control (dose: 25.0 mg/kg/injection, schedule: Q01DX009 (ip), vehicle: other); 236 % of control and 210 % of control (dose: 25.0 mg/kg/injection, schedule: Q01DX009 (ip), vehicle: saline with Tween-80); 100 % of control and 105 % of control (dose: 25.0 mg/kg/injection, schedule: Q01DX009 (oral), vehicle: Klucel (hydroxypropylcellulose) (HPC)). Further, the T/C runs as follows: (dose: 32.0 mg/kg/injection, schedule: Q04DX003 (ip), vehicle: saline with Tween-80) 172 % of control; (dose: 43.2 mg/kg/injection, schedule: Q04DX003 (ip), vehicle: Klucel (hydroxypropylcellulose) (HPC)) 170 % of control; (dose: 43.2 mg/kg/injection, schedule: Q04DX003 (ip), vehicle: acid diluted with saline) 153 % of control; under setting [2], 221 % of control; (dose: 50.0 mg/kg/injection, schedule: Q01DX009 (ip), vehicle: other) 231 % of control and 193 % of control; (dose: 50.0 mg/kg/injection, schedule: Q01DX009 (ip), vehicle: saline with Tween-80) 190 % of control. Also, the T/C runs as follows: (dose: 50.0 mg/kg/injection, schedule: Q01DX009 (oral), vehicle: Klucel (hydroxypropylcellulose) (HPC)) 103 % of control and 111 % of control; (dose: 64.0 mg/kg/injection, schedule: Q04DX003 (ip), vehicle: saline with Tween-80) 175 % of control; (dose: 72.0 mg/kg/injection, schedule: Q04DX003 (ip), vehicle: Klucel (hydroxypropylcellulose) (HPC)) 173 % of control; (dose: 72.0 mg/kg/injection, schedule: Q04DX003 (ip), vehicle: acid diluted with saline) 173 % of control; under setting [3], 170 % of control; (dose: 100.0 mg/kg/injection, schedule: Q01DX009 (ip), vehicle: saline with Tween-80) 190 % of control and 220 % of control. Further, the T/C was 104 % of control (dose: 100.0 mg/kg/injection, schedule: Q01DX009 (oral), vehicle: Klucel (hydroxypropylcellulose) (HPC)); 184 % of control (dose: 120.0 mg/kg/injection, schedule: Q04DX003 (ip), vehicle: Klucel (hydroxypropylcellulose) (HPC)); 180 % of control (dose: 120.0 mg/kg/injection, schedule: Q04DX003 (ip), vehicle: acid diluted with saline); 182 % of control (dose: 128.0 mg/kg/injection, schedule: Q04DX003 (ip), vehicle: saline with Tween-80); 105 % of control (dose: 200.0 mg/kg/injection, schedule: Q01DX009 (oral), vehicle: Klucel (hydroxypropylcellulose) (HPC)); 175 % of control (dose: 200.0 mg/kg/injection, schedule: Q04DX003 (ip), vehicle: Klucel (hydroxypropylcellulose) (HPC)). The T/C (dose: 200.0 mg/kg/injection, schedule: Q04DX003 (ip), vehicle: acid diluted with saline) is 173 % of control.
Regarding `CS(=O)(=O)NC(=O)NC(=S)c1ccccc1`, the T/C runs as follows: (dose: 100.0 mg/kg/injection, schedule: Q01DX001 (ip), vehicle: saline with Tween-80) 100 % of control; (dose: 200.0 mg/kg/injection, schedule: Q01DX001 (ip), vehicle: saline with Tween-80) 100 % of control; (dose: 400.0 mg/kg/injection, schedule: Q01DX001 (ip), vehicle: saline with Tween-80) 108 % of control.
As for `N#CCNC(=O)c1ccccc1`, the T/C is 88 % of control (dose: 6.0 mg/kg/injection, schedule: Q01DX009 (ip), vehicle: Klucel (hydroxypropylcellulose) (HPC)); 88 % of control (dose: 12.0 mg/kg/injection, schedule: Q01DX009 (ip), vehicle: Klucel (hydroxypropylcellulose) (HPC)); 91 % of control under setting [1]; 110 % of control (dose: 25.0 mg/kg/injection, schedule: Q04DX003 (ip), vehicle: Klucel (hydroxypropylcellulose) (HPC)); 110 % of control (dose: 50.0 mg/kg/injection, schedule: Q04DX003 (ip), vehicle: Klucel (hydroxypropylcellulose) (HPC)); 90 % of control (dose: 100.0 mg/kg/injection, schedule: Q04DX003 (ip), vehicle: Klucel (hydroxypropylcellulose) (HPC)).
Turning to `CN(C)/N=N/c1nc[nH]c1C(N)=O`, the T/C is 116 % of control (dose: 25.0 mg/kg/injection, schedule: Q01DX010 (ip), vehicle: saline); 100 % of control and 108 % of control and 123 % of control under setting [2]; 100 % of control (dose: 50.0 mg/kg/injection, schedule: Q01DX010 (ip), vehicle: saline); 92 % of control and 97 % of control and 100 % of control under setting [3]; 100 % of control (2×) and 115 % of control under setting [4]; 109 % of control (dose: 208.0 mg/kg/injection, schedule: Q01DX001 (ip), vehicle: carboxymethylcellulose (CMC)). Further, the T/C runs as follows: (dose: 275.0 mg/kg/injection, schedule: Q01DX001 (ip), vehicle: carboxymethylcellulose (CMC)) 110 % of control and 116 % of control; under setting [5], 115 % of control and 122 % of control and 123 % of control; (dose: 418.0 mg/kg/injection, schedule: Q01DX001 (ip), vehicle: carboxymethylcellulose (CMC)) 119 % of control; (dose: 775.0 mg/kg/injection, schedule: Q01DX001 (ip), vehicle: carboxymethylcellulose (CMC)) 158 % of control.
With `CCCn1c2ccccc2c2ccccc21`, the T/C by setting is: under setting [3], 120 % of control; under setting [4], 100 % of control; under setting [5], 95 % of control.
Consider `COC(=O)c1cc(OC)cc(OC)c1`, for which the T/C runs as follows: (dose: 100.0 mg/kg/injection, schedule: Q04DX003 (ip), vehicle: other) 100 % of control; (dose: 200.0 mg/kg/injection, schedule: Q04DX003 (ip), vehicle: other) 113 % of control; (dose: 400.0 mg/kg/injection, schedule: Q04DX003 (ip), vehicle: other) 109 % of control.
As to `CC(=O)CC(C)=O.CC(=O)CC(C)=O.Cc1ncc[nH]1.Cc1ncc[nH]1.[Co]`, the T/C is, setting by setting: (dose: 12.5 mg/kg/injection, schedule: Q01DX001 (ip), vehicle: saline with Tween-80) 100 % of control; (dose: 25.0 mg/kg/injection, schedule: Q01DX001 (ip), vehicle: saline with Tween-80) 97 % of control; (dose: 50.0 mg/kg/injection, schedule: Q01DX001 (ip), vehicle: saline with Tween-80) 113 % of control.
